#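 Cultured in 96-well plates, cells were exposed to test compound for 48 hours across five concentrations. GI50 = concentration required for 50% inhibition of growth.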 Active and inactive are the calls of the source. Cut-off read from the data, not from the text of the source: active = GI50 up to about 1.1 µM and inactive = higher.
# Legend:
# Test in all cases: inhibition of tumour cell growth, NCI panel, 48 h
# [1] = system: HT-29
# [2] = system: OVCAR-5
# [3] = system: NCI-H226
# [4] = system: K562
# [5] = system: SR
# [6] = system: SF-295
# [7] = system: KM12
# [8] = system: MOLT-4
# [9] = system: MDA-MB-231
# [10] = system: MCF7
# [11] = system: HOP-62
# [12] = system: OVCAR-3
# [13] = system: NCI-H23
# [14] = system: M14
# [15] = system: CAKI-1
# [16] = system: TK-10
# [17] = system: UACC-257
# [18] = system: U-251
# [19] = system: HCT-15
# [20] = system: DU-145
# [21] = system: LOX IMVI
# [22] = system: A498
# [23] = system: Malme-3M
# [24] = system: HCT-116
# [25] = system: NCI-H460
# [26] = system: OVCAR-8
# [27] = system: MDA-MB-435
# [28] = system: SF-539
# [29] = system: EKVX
# [30] = system: T47D
# [31] = system: CCRF-CEM
# [32] = system: SNB-75
# [33] = system: COLO 205
# [34] = system: HOP-92
# [35] = system: OVCAR-4
# [36] = system: SNB-19
# [37] = system: SN12C
# [38] = system: HL-60
# [39] = system: Hs-578T
# [40] = system: SK-OV-3
# [41] = system: 786-0
# [42] = system: IGROV-1
# [43] = system: NCI-H522
# [44] = system: NCI/ADR-RES
# [45] = system: RPMI-8226
# [46] = system: A549
# [47] = system: RXF 393
# [48] = system: MDA-N
# [49] = system: UO-31
# [50] = system: PC-3
# [51] = system: SF-268
# [52] = system: SK-MEL-2
# [53] = system: SW-620
# [54] = system: ACHN
# [55] = system: SK-MEL-5
# [56] = system: HCC 2998
# [57] = system: SK-MEL-28
# [58] = system: BT-549
# [59] = system: UACC-62
smiles,measurement,setting,value
N#Cc1c(/C=C/c2ccccc2)c2c([nH]c1=S)CCCCC2,GI50,[1],> 100 µM (inactive)
same,GI50,[2],> 100 µM (inactive)
same,GI50,[3],> 100 µM (inactive)
same,GI50,[4],> 100 µM (inactive)
same,GI50,[5],84.7 µM (inactive)
same,GI50,[6],> 100 µM (inactive)
same,GI50,[7],75.5 µM (inactive)
same,GI50,[8],> 100 µM (inactive)
same,GI50,[9],> 100 µM (inactive)
same,GI50,[10],> 100 µM (inactive)
same,GI50,[11],> 100 µM (inactive)
same,GI50,[12],> 100 µM (inactive)
same,GI50,[13],> 100 µM (inactive)
same,GI50,[14],> 100 µM (inactive)
same,GI50,[15],> 100 µM (inactive)
same,GI50,[16],> 100 µM (inactive)
same,GI50,[17],> 100 µM (inactive)
same,GI50,[18],82.2 µM (inactive)
same,GI50,[19],> 100 µM
same,GI50,[20],> 100 µM (inactive)
same,GI50,[21],> 100 µM (inactive)
same,GI50,[22],> 100 µM (inactive)
same,GI50,[23],> 100 µM (inactive)
same,GI50,[24],> 100 µM (inactive)
same,GI50,[25],4.9 µM (inactive)
same,GI50,[26],> 100 µM (inactive)
same,GI50,[27],> 100 µM (inactive)
same,GI50,[28],> 100 µM (inactive)
same,GI50,[29],> 100 µM (inactive)
same,GI50,[30],> 100 µM (inactive)
same,GI50,[31],> 100 µM (inactive)
same,GI50,[32],> 100 µM (inactive)
same,GI50,[33],> 100 µM (inactive)
same,GI50,[34],> 100 µM (inactive)
same,GI50,[35],> 100 µM (inactive)
same,GI50,[36],> 100 µM (inactive)
same,GI50,[37],> 100 µM (inactive)
same,GI50,[38],> 100 µM (inactive)
same,GI50,[39],> 100 µM (inactive)
same,GI50,[40],> 100 µM (inactive)
same,GI50,[41],> 100 µM (inactive)
same,GI50,[42],> 100 µM (inactive)
same,GI50,[43],> 100 µM (inactive)
same,GI50,[44],> 100 µM (inactive)
same,GI50,[45],> 100 µM (inactive)
same,GI50,[46],> 100 µM (inactive)
same,GI50,[47],> 100 µM (inactive)
same,GI50,[48],> 100 µM (inactive)
same,GI50,[49],> 100 µM (inactive)
same,GI50,[50],> 100 µM (inactive)
same,GI50,[51],> 100 µM (inactive)
same,GI50,[52],> 100 µM (inactive)
same,GI50,[53],> 100 µM (inactive)
same,GI50,[54],> 100 µM (inactive)
same,GI50,[55],> 100 µM (inactive)
same,GI50,[56],> 100 µM (inactive)
same,GI50,[57],> 100 µM (inactive)
CCOc1ccc(N/C(=C(/C(Cl)=C(/Cl)NC(C)(C)C)[N+](=O)[O-])n2nnc3ccccc32)cc1,GI50,[1],35.1 µM (inactive)
same,GI50,[2],31.6 µM (inactive)
same,GI50,[3],> 100 µM (inactive)
same,GI50,[4],> 100 µM (inactive)
same,GI50,[6],28.1 µM (inactive)
same,GI50,[7],21.1 µM (inactive)
same,GI50,[8],> 100 µM (inactive)
same,GI50,[9],17.9 µM (inactive)
same,GI50,[10],26.1 µM (inactive)
same,GI50,[58],17.9 µM (inactive)
same,GI50,[11],70 µM (inactive)
same,GI50,[12],25.9 µM (inactive)
same,GI50,[13],22.6 µM (inactive)
same,GI50,[14],> 100 µM (inactive)
same,GI50,[15],19.3 µM (inactive)
same,GI50,[59],22.8 µM (inactive)
same,GI50,[17],53.7 µM (inactive)
same,GI50,[18],19 µM (inactive)
same,GI50,[19],20.4 µM
same,GI50,[22],91.6 µM (inactive)
same,GI50,[23],15.8 µM (inactive)
same,GI50,[24],18.6 µM (inactive)
same,GI50,[25],76.9 µM (inactive)
same,GI50,[26],16.6 µM (inactive)
same,GI50,[27],18.2 µM (inactive)
same,GI50,[28],24.1 µM (inactive)
same,GI50,[29],39 µM (inactive)
same,GI50,[30],15.5 µM (inactive)
same,GI50,[31],12.7 µM (inactive)
same,GI50,[32],24.2 µM (inactive)
same,GI50,[33],21.1 µM (inactive)
same,GI50,[35],25.6 µM (inactive)
same,GI50,[36],47.6 µM (inactive)
same,GI50,[37],34 µM (inactive)
same,GI50,[39],11 µM (inactive)
same,GI50,[40],59.8 µM (inactive)
same,GI50,[41],18 µM (inactive)
same,GI50,[44],32.4 µM (inactive)
same,GI50,[45],23.9 µM (inactive)
same,GI50,[46],70.3 µM (inactive)
same,GI50,[47],20.1 µM (inactive)
same,GI50,[49],29.9 µM (inactive)
same,GI50,[50],28.7 µM (inactive)
same,GI50,[51],16.7 µM (inactive)
same,GI50,[52],31.6 µM (inactive)
same,GI50,[53],19.2 µM (inactive)
same,GI50,[54],31.8 µM (inactive)
same,GI50,[56],> 100 µM (inactive)
same,GI50,[57],16.4 µM (inactive)

# From ChEMBL document CHEMBL1201862, “PubChem BioAssay data set” (2004)
